# Tested on: C57 B16J mice
# Assay: Tail suspension test (animal model of depression)
# Format: in vivo
# Conditions: CBG dose greater than or equal to 40 mg/kg ip, tested 30 minutes after injection for six minutes
# Procedure: A substantially pure extract of cannabigerol, purified from a cannabis plant extract, was tested for its ability to modify the behaviour of mice during an open field test and a tail suspension test (Steru et al., 1985, Psychopharmacology (Berl.) 85(3), 367-370). The CBG extract was compared to a known antidepressant imipramine.
# The experiment used groups of 7-8 C57 B16J mice and these were tested with doses of 0, 5, 10, 20, 40, 60 and 80 mg/kg ip of CBG extract. The dose of imipramine that was used was the standard dose that is known to produce an anti-depressant effect of 30 mg/kg ip. One group of animals were administered a vehicle control.
# The animals were subjected to a tail suspension test whereby a sound-attenuated chamber with a titanium bar mounted 15 cm from the floor was used. An opto-electronic sensor was mounted in a white plastic column and positioned from the mounting bar. An infra-red light transmitted from an LED onto the animal. If the animal moved, the amount of light collected by the phototransistor would increase or decrease depending on the size of the movement. […]
# The mouse was suspended from a bar by the tip of its tail using adhesive tape so that the tip of their nose was 2 cm from the floor of the chamber. The total number of movements and total amount of time spent immobile were recorded.
compound,measurement,value
"CCCCCc1cc(O)c(C/C=C(\C)CCC=C(C)C)c(O)c1 [CBG, cannabigerol]",amount of struggling in the tail suspension test compared with vehicle control,significantly increased

# From US20140039043A1, “PHARMACEUTICAL COMPOSITIONS COMPRISING CANNABIGEROL” (GW Pharma Limited, priority 2006, published 2014)
